Patent US7767685B2, “Adenosine A2B receptor antagonists” (King Pharmaceuticals Research and Development, Inc., priority 2006, dated 2010)

Target: T1, human A3 adenosine receptors (Homo sapiens, UniProt P0DMS8)
T1 construct: expressed in transfected cells; host or cells: CHO cells (membranes)
T1 sequence (P0DMS8 1-318): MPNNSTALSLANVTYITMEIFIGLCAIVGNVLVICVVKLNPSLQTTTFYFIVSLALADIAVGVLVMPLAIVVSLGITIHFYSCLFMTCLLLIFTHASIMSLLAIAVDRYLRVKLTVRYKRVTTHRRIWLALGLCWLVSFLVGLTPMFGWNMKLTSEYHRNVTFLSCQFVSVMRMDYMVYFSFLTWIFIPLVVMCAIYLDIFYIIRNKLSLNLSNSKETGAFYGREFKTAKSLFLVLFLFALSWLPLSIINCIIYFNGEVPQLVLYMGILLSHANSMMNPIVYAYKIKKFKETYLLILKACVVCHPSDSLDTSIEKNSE
Test: Displacement of [3H]MRE3008F20 binding at human A3 adenosine receptors expressed in CHO cells
Conditions: [3H]MRE3008F20 displacement, n = 3-6 (footnote mark c/d swapped), geometric mean (95% confidence limits), read-out: Ki hA3
Experimental: The human adenosine receptors have been transfected in CHO cells according with the method previously described by Klotz et al. (Naunyn-Schmied. Arch Pharm. 1998, 357: 1-9). Briefly, the cells are grown adherently and maintained in Dulbecco's Modified Eagles Medium with nutrient mixture F12 (DMEM/F12) without nucleosides, containing 10% fetal calf serum, penicillin (100 U/mL), streptomycin (100 μg/mL), L-glutamine (2 mM) and Geneticin (G418, 0.2 mg/ml) at 37° C. in 5% CO2/95% air. For membrane preparation the culture medium is removed and the cells are washed with phosphate-buffered saline and scraped off T75 flasks in ice-cold hypo tonic buffer (5 mM Tris HCl, 1 mM EDTA, pH 7.4). […]
All new synthesized compounds have been tested to evaluate their affinity to human A1, A2A, A2B and A3 adenosine receptors. […] Non-specific binding is determined in the presence of 10 μM of CHA and this is always ≦10% of the total binding. […] Non-specific binding is determined in the presence of 1 μM ZM 241385 and is about 20% of total binding. […] Bound and free radioactivity are separated by filtering the assay mixture through Whatman GF/B glass fiber filters using a Micro-Mate 196 cell harvester (Packard Instrument Co.). The filter bound radioactivity is counted on a Top Count (efficiency 57%) with Micro-Scint 20. […]

Ki: > 1000 nM
SMILES: CCCn1c(=O)c2[nH]c(-c3cc(C)n(CC(=O)Nc4ccc(C(C)CC)cc4)n3)nc2n(CCC)c1=O (stereo not shown) [Example 12, 2-[3-(2,6-Dioxo-1,3-dipropyl-2,3,6,7-tetrahydro-1H-purin-8-yl)-5-methyl-pyrazol-1-yl]-N-(4-sec-butylphenyl)-acetamide]
